The values below come from the NIST ThermoML archive (doi:10.1021/je030147g).

“And” between values parts separate entries of the source, which are not always exact repeats. Equal values may be shown once. Numbers after ± are expanded uncertainties.

Series [1] is described as follows: refractive index (Na D-line) (dimensionless). The settings on record: 101.33 kPa, Liquid.
For series [2] the following is noted: 101.33 kPa, Liquid.

As to `C1CCOC1` [tetrahydrofuran], the refractive index in series [1] (298.15 K) is listed as 1.4049 ± 0.0012; in series [1] (303.15 K), 1.4026 ± 0.0012; in series [1] (308.15 K) it was 1.3998 ± 0.0012. For the same compound, the mass density is given as 882.9 ± 0.8 kg/m3 in series [2] (298.15 K), 877.5 ± 0.9 kg/m3 in series [2] (303.15 K) and 871.2 ± 0.9 kg/m3 in series [2] (308.15 K). The speed of sound in series [2] (298.15 K) came to 1288 ± 6 m/s. Moreover, the viscosity worked out at 0.485 ± 0.014 mPa·s in series [2] (298.15 K), 0.46 ± 0.013 mPa·s in series [2] (303.15 K) and 0.439 ± 0.013 mPa·s in series [2] (308.15 K).
In the case of `CCCCN(CCCC)CCCC` [tributylamine], the refractive index in series [1] (298.15 K) was 1.4276 ± 0.0013; in series [1] (303.15 K), 1.4255 ± 0.0013 and 1.4254 ± 0.0013; in series [1] (308.15 K) it was 1.4228 ± 0.0013. The mass density is 773.9 ± 0.8 kg/m3 and 773.3 ± 0.8 kg/m3 in series [2] (298.15 K); 769.2 ± 0.8 kg/m3 in series [2] (303.15 K); 765.7 ± 0.9 kg/m3 in series [2] (308.15 K). In addition, the speed of sound in series [2] (298.15 K) is given as 1262 ± 6 m/s. Moreover, the viscosity in series [2] (298.15 K) is 1.239 ± 0.03 mPa·s; in series [2] (303.15 K) it was 1.123 ± 0.028 mPa·s and 1.124 ± 0.028 mPa·s; in series [2] (308.15 K), 1.028 ± 0.026 mPa·s and 1.02 ± 0.026 mPa·s and 1.103 ± 0.11 mPa·s.
Consider `ClC=C(Cl)Cl` [trichloroethene], for which the refractive index turned out to be 1.4752 ± 0.0012 in series [1] (298.15 K), 1.4722 ± 0.0012 in series [1] (303.15 K) and 1.469 ± 0.0012 in series [1] (308.15 K). For the same compound, the results for the mass density in series [2] (298.15 K), in series [2] (303.15 K) and in series [2] (308.15 K) were 1456.7 ± 1.6 kg/m3, 1447.1 ± 1.6 kg/m3 and 1439.5 ± 1.7 kg/m3, respectively. Moreover, in series [2] (298.15 K), the speed of sound is on record as 1028 ± 5 m/s. In addition, the viscosity in series [2] (298.15 K) turned out to be 0.595 ± 0.016 mPa·s; in series [2] (303.15 K), 0.571 ± 0.016 mPa·s; in series [2] (308.15 K), 0.549 ± 0.015 mPa·s.
Regarding `CCN(CC)CC` [triethylamine], the refractive index is on record as 1.3992 ± 0.0012 in series [1] (298.15 K), 1.3958 ± 0.0012 in series [1] (303.15 K) and 1.3929 ± 0.0012 in series [1] (308.15 K). The mass density worked out at 723.3 ± 0.7 kg/m3 in series [2] (298.15 K), 718.6 ± 0.7 kg/m3 in series [2] (303.15 K) and 713.7 ± 0.7 kg/m3 in series [2] (308.15 K). In addition, the speed of sound in series [2] (298.15 K) turned out to be 1123 ± 5 m/s. The viscosity worked out at 0.367 ± 0.011 mPa·s in series [2] (298.15 K), 0.349 ± 0.011 mPa·s in series [2] (303.15 K) and 0.332 ± 0.01 mPa·s in series [2] (308.15 K).

Usually refractive index stands for the speed of light in vacuum divided by its phase velocity in the sample. By mass density is commonly meant the mass of a sample divided by its volume. By speed of sound is commonly meant how fast a sound wave travels through the sample. In general, viscosity refers to the internal friction of a fluid under shear.
